Test results as given in patent US11006631B2, “Substituted pyrimidinyloxy pyridine derivatives as herbicides” (FMC Corporation, priority 2015, dated 2021).

Assays:
Format in all cases: in vivo
[1] = system: barnyardgrass (Echinochloa crus-galli); experiment: Test A preemergence, barnyardgrass; conditions: 0 to 100 scale
Source text: (§1) Seeds of plant species selected from bamyardgrass (Echinochloa crus-galli), kochia (Kochia scoparia), ragweed (common ragweed, Ambrosia elatior), ryegrass, Italian (Italian ryegrass, Lolium multiflorum), foxtail, giant (giant foxtail, Setaria faberii), pigweed (Amaranthus retroflexus), crabgrass, large (large crabgrass, Digitaria sanguinalis), momingglory (Ipomoea spp.), velvetleaf (Abutilon theophrasti), wheat (Triticum aestivum), and corn (Zea mays) were planted into a blend of loam soil and sand and treated preemergence with a directed soil spray using test chemicals formulated in a non-phytotoxic solvent mixture which included a surfactant. At the same time, plants selected from these crop and weed species and also blackgrass (Alopecurus myosuroides), and galium (catchweed bedstraw, Galium aparine) were planted in pots containing the same blend of loam soil and sand and treated with postemergence applications of test chemicals formulated in the same manner. Plants ranged in height from 2 to 10 cm and were in the one- to two-leaf stage for the postemergence treatment. Treated plants and untreated controls were maintained in a greenhouse for approximately 10 days, after which time all treated plants were compared to untreated controls and visually evaluated for injury. Plant response ratings, summarized in Table A, are based on a 0 to 100 scale where 0 is no effect and 100 is complete control. A dash (-) response means no test result.

[2] = system: pigweed (Amaranthus retroflexus); experiment: Test A preemergence, pigweed; conditions: 0 to 100 scale
Source text: as §1

[3] = system: wheat (Triticum aestivum); experiment: Test A postemergence, wheat; conditions: 0 to 100 scale
Source text: as §1

[4] = system: barnyardgrass (Echinochloa crus-galli); experiment: Test A postemergence, barnyardgrass; conditions: 0 to 100 scale
Source text: as §1

[5] = system: barnyardgrass (Echinochloa crus-galli); experiment: Test B flooded paddy test, barnyardgrass; conditions: Flood, 250 g ai/ha; scale of 0 to 100
Experimental: (§2) Plant species in the flooded paddy test selected from rice (Oryza sativa), sedge, umbrella (small-flower umbrella sedge, Cyperus difformis), ducksalad (Heteranthera limosa), and barnyardgrass (Echinochloa crus-galli) were grown to the 2-leaf stage for testing. At time of treatment, test pots were flooded to 3 cm above the soil surface, treated by application of test compounds directly to the paddy water, and then maintained at that water depth for the duration of the test. Treated plants and controls were maintained in a greenhouse for 13 to 15 days, after which time all species were compared to controls and visually evaluated. Plant response ratings, summarized in Table B, are based on a scale of 0 to 100 where 0 is no effect and 100 is complete control. A dash (-) response means no test result.

[6] = system: sedge, umbrella (small-flower umbrella sedge, Cyperus difformis); experiment: Test B flooded paddy test, sedge, umbrella; conditions: Flood, 250 g ai/ha; scale of 0 to 100
Experimental: as §2

[7] = system: ducksalad (Heteranthera limosa); experiment: Test B flooded paddy test, ducksalad; conditions: Flood, 250 g ai/ha; scale of 0 to 100
Experimental: as §2

[8] = system: blackgrass (Alopecurus myosuroides); experiment: Test A postemergence, blackgrass; conditions: 0 to 100 scale
Source text: as §1

corn (Zea mays) = experiment: Test A postemergence, corn; conditions: 0 to 100 scale
Source text: as §1

kochia (Kochia scoparia) [9] = experiment: Test A postemergence, kochia; conditions: 0 to 100 scale
Source text: as §1

[10] = system: galium (catchweed bedstraw, Galium aparine); experiment: Test A postemergence, galium; conditions: 0 to 100 scale
Source text: as §1

[11] = system: ragweed (common ragweed, Ambrosia elatior); experiment: Test A postemergence, ragweed; conditions: 0 to 100 scale
Source text: as §1

[12] = system: foxtail, giant (giant foxtail, Setaria faberii); experiment: Test A postemergence, foxtail, giant; conditions: 0 to 100 scale
Source text: as §1

rice (Oryza sativa) = experiment: Test B flooded paddy test, rice; conditions: Flood, 250 g ai/ha; scale of 0 to 100
Experimental: as §2

[13] = system: pigweed (Amaranthus retroflexus); experiment: Test A postemergence, pigweed; conditions: 0 to 100 scale
Source text: as §1

[14] = system: ryegrass, Italian (Italian ryegrass, Lolium multiflorum); experiment: Test A postemergence, ryegrass, Italian; conditions: 0 to 100 scale
Source text: as §1

kochia (Kochia scoparia) [15] = experiment: Test A preemergence, kochia; conditions: 0 to 100 scale
Source text: as §1

[16] = system: ryegrass, Italian (Italian ryegrass, Lolium multiflorum); experiment: Test A preemergence, ryegrass, Italian; conditions: 0 to 100 scale
Source text: as §1

[17] = system: ragweed (common ragweed, Ambrosia elatior); experiment: Test A preemergence, ragweed; conditions: 0 to 100 scale
Source text: as §1

[18] = system: foxtail, giant (giant foxtail, Setaria faberii); experiment: Test A preemergence, foxtail, giant; conditions: 0 to 100 scale
Source text: as §1

| Compound | Plant response rating, Barnyardgrass ([1]; 31 g ai/ha) | Plant response rating, Barnyardgrass ([1]; 125 g ai/ha) | Plant response rating, Pigweed ([2]; 31 g ai/ha) | Plant response rating, Pigweed ([2]; 125 g ai/ha) | Plant response rating, Wheat ([3]; 31 g ai/ha) | Plant response rating, Wheat ([3]; 125 g ai/ha) | Plant response rating, Barnyardgrass ([4]; 31 g ai/ha) | Plant response rating, Barnyardgrass ([4]; 125 g ai/ha) | Plant response rating, Barnyardgrass [5] | Plant response rating, Sedge, Umbrella [6] | Plant response rating, Ducksalad [7] | Plant response rating, Blackgrass ([8]; 31 g ai/ha) | Plant response rating, Blackgrass ([8]; 125 g ai/ha) | Plant response rating, Corn (corn (Zea mays); 31 g ai/ha) | Plant response rating, Corn (corn (Zea mays); 125 g ai/ha) | Plant response rating, Kochia (kochia (Kochia scoparia) [9]; 31 g ai/ha) | Plant response rating, Kochia (kochia (Kochia scoparia) [9]; 125 g ai/ha) | Plant response rating, Galium ([10]; 31 g ai/ha) | Plant response rating, Galium ([10]; 125 g ai/ha) | Plant response rating, Ragweed ([11]; 31 g ai/ha) | other results |
| --- | --- | --- | --- | --- | --- | --- | --- | --- | --- | --- | --- | --- | --- | --- | --- | --- | --- | --- | --- | --- | --- |
| Clc1ccc(-c2cccnc2Oc2ncc(Cl)cn2)nc1 [Compound 12, 5-chloro-2-[(5-chloro[2,3′-bipyridin]-2′-yl)oxy]pyrimidine] | 0 | 0 | 0 | 60 | 0 | 0 | 0 | 30 | 0 | 30 | 30 | 0 | 0 | 0 | 10 | 0 | 40 | 10 | 10 | 0 | Plant response rating, Ragweed ([11]; 125 g ai/ha): 10; Plant response rating, Foxtail, Giant ([12]; 31 g ai/ha): 0; Plant response rating, Foxtail, Giant ([12]; 125 g ai/ha): 0; Plant response rating, Rice (rice (Oryza sativa)): 20; Plant response rating, Pigweed ([13]; 31 g ai/ha): 10; Plant response rating, Pigweed ([13]; 125 g ai/ha): 30; Plant response rating, Ryegrass, Italian ([14]; 31 g ai/ha): 0; Plant response rating, Ryegrass, Italian ([14]; 125 g ai/ha): 0; Plant response rating, Kochia (kochia (Kochia scoparia) [15]; 31 g ai/ha): 0; Plant response rating, Kochia (kochia (Kochia scoparia) [15]; 125 g ai/ha): 40; Plant response rating, Ryegrass, Italian ([16]; 31 g ai/ha): 0; Plant response rating, Ryegrass, Italian ([16]; 125 g ai/ha): 0; Plant response rating, Ragweed ([17]; 31 g ai/ha): 0; Plant response rating, Ragweed ([17]; 125 g ai/ha): 0; Plant response rating, Foxtail, Giant ([18]; 31 g ai/ha): 0; Plant response rating, Foxtail, Giant ([18]; 125 g ai/ha): 0 |
| [O-][n+]1cccc(Oc2ncc(Cl)cn2)c1-c1cc(C(F)F)on1 [Compound 8, 5-chloro-2-[[2-[5-(difluoromethyl)-3-isoxazolyl]-1-oxido-3-pyridinyl]oxy]pyrimidine] | 0 | 0 | 40 | 90 | 10 | 20 | 0 | 10 | 0 | 0 | 40 | 0 | 10 | 0 | 20 | 40 | 70 | 40 | 60 | 30 | Plant response rating, Ragweed ([11]; 125 g ai/ha): 50; Plant response rating, Foxtail, Giant ([12]; 31 g ai/ha): 0; Plant response rating, Foxtail, Giant ([12]; 125 g ai/ha): 10; Plant response rating, Rice (rice (Oryza sativa)): 0; Plant response rating, Pigweed ([13]; 31 g ai/ha): 50; Plant response rating, Pigweed ([13]; 125 g ai/ha): 70; Plant response rating, Ryegrass, Italian ([14]; 31 g ai/ha): 0; Plant response rating, Ryegrass, Italian ([14]; 125 g ai/ha): 0; Plant response rating, Kochia (kochia (Kochia scoparia) [15]; 31 g ai/ha): 0; Plant response rating, Kochia (kochia (Kochia scoparia) [15]; 125 g ai/ha): 40; Plant response rating, Ryegrass, Italian ([16]; 31 g ai/ha): 0; Plant response rating, Ryegrass, Italian ([16]; 125 g ai/ha): 0; Plant response rating, Ragweed ([17]; 31 g ai/ha): 0; Plant response rating, Ragweed ([17]; 125 g ai/ha): 0; Plant response rating, Foxtail, Giant ([18]; 31 g ai/ha): 0; Plant response rating, Foxtail, Giant ([18]; 125 g ai/ha): 10 |
| Fc1cnc(Oc2cccnc2-c2cc(C(F)F)no2)nc1 [Compound 7] | 0 | 20 | 70 | 100 | 0 | 20 | 0 | 0 | 0 | 0 | 50 | 0 | 0 | 0 | 0 | 70 | 90 | 20 | 50 | 0 | Plant response rating, Ragweed ([11]; 125 g ai/ha): 10; Plant response rating, Foxtail, Giant ([12]; 31 g ai/ha): 0; Plant response rating, Foxtail, Giant ([12]; 125 g ai/ha): 0; Plant response rating, Rice (rice (Oryza sativa)): 0; Plant response rating, Pigweed ([13]; 31 g ai/ha): 20; Plant response rating, Pigweed ([13]; 125 g ai/ha): 70; Plant response rating, Ryegrass, Italian ([14]; 31 g ai/ha): 0; Plant response rating, Ryegrass, Italian ([14]; 125 g ai/ha): 0; Plant response rating, Kochia (kochia (Kochia scoparia) [15]; 31 g ai/ha): 20; Plant response rating, Kochia (kochia (Kochia scoparia) [15]; 125 g ai/ha): 70; Plant response rating, Ryegrass, Italian ([16]; 31 g ai/ha): 0; Plant response rating, Ryegrass, Italian ([16]; 125 g ai/ha): 0; Plant response rating, Ragweed ([17]; 31 g ai/ha): 0; Plant response rating, Ragweed ([17]; 125 g ai/ha): 30; Plant response rating, Foxtail, Giant ([18]; 31 g ai/ha): 0; Plant response rating, Foxtail, Giant ([18]; 125 g ai/ha): 20 |
| Cc1cnc(-n2ccc(C(F)(F)F)n2)c(Oc2ncc(Cl)cn2)c1 [Compound 13] | 0 | 0 | 0 | 0 | 0 | 0 | 0 | 0 | 0 | 0 | 0 | 0 | 0 | 0 | 0 | 0 | 0 | 0 | 0 | 0 | Plant response rating, Ragweed ([11]; 125 g ai/ha): 0; Plant response rating, Foxtail, Giant ([12]; 31 g ai/ha): 0; Plant response rating, Foxtail, Giant ([12]; 125 g ai/ha): 0; Plant response rating, Rice (rice (Oryza sativa)): 0; Plant response rating, Pigweed ([13]; 31 g ai/ha): 0; Plant response rating, Pigweed ([13]; 125 g ai/ha): 0; Plant response rating, Ryegrass, Italian ([14]; 31 g ai/ha): 0; Plant response rating, Ryegrass, Italian ([14]; 125 g ai/ha): 0; Plant response rating, Kochia (kochia (Kochia scoparia) [15]; 31 g ai/ha): 0; Plant response rating, Kochia (kochia (Kochia scoparia) [15]; 125 g ai/ha): 0; Plant response rating, Ryegrass, Italian ([16]; 31 g ai/ha): 0; Plant response rating, Ryegrass, Italian ([16]; 125 g ai/ha): 0; Plant response rating, Ragweed ([17]; 31 g ai/ha): 0; Plant response rating, Ragweed ([17]; 125 g ai/ha): 0; Plant response rating, Foxtail, Giant ([18]; 31 g ai/ha): 0; Plant response rating, Foxtail, Giant ([18]; 125 g ai/ha): 0 |
| [O-][n+]1cccc(Oc2ncc(F)cn2)c1-n1cc(Cl)cn1 [Compound 9] | 0 | 0 | 0 | 20 | 0 | 0 | 0 | 0 | 0 | 0 | 0 | 0 | 0 | 0 | 0 | 10 | 50 | 10 | 30 | 10 | Plant response rating, Ragweed ([11]; 125 g ai/ha): 30; Plant response rating, Foxtail, Giant ([12]; 31 g ai/ha): 0; Plant response rating, Foxtail, Giant ([12]; 125 g ai/ha): 0; Plant response rating, Rice (rice (Oryza sativa)): 0; Plant response rating, Pigweed ([13]; 31 g ai/ha): 30; Plant response rating, Pigweed ([13]; 125 g ai/ha): 50; Plant response rating, Ryegrass, Italian ([14]; 31 g ai/ha): 0; Plant response rating, Ryegrass, Italian ([14]; 125 g ai/ha): 0; Plant response rating, Kochia (kochia (Kochia scoparia) [15]; 31 g ai/ha): 0; Plant response rating, Kochia (kochia (Kochia scoparia) [15]; 125 g ai/ha): 0; Plant response rating, Ryegrass, Italian ([16]; 31 g ai/ha): 0; Plant response rating, Ryegrass, Italian ([16]; 125 g ai/ha): 0; Plant response rating, Ragweed ([17]; 31 g ai/ha): 0; Plant response rating, Ragweed ([17]; 125 g ai/ha): 0; Plant response rating, Foxtail, Giant ([18]; 31 g ai/ha): 0; Plant response rating, Foxtail, Giant ([18]; 125 g ai/ha): 0 |
